The values that follow come from patent publication US20240043400A1, “Octahydroisoquinolinyl Derivatives” (UCB Biopharma SRL, priority 2020, published 2024).

T1 sequence (P21728 whole entry): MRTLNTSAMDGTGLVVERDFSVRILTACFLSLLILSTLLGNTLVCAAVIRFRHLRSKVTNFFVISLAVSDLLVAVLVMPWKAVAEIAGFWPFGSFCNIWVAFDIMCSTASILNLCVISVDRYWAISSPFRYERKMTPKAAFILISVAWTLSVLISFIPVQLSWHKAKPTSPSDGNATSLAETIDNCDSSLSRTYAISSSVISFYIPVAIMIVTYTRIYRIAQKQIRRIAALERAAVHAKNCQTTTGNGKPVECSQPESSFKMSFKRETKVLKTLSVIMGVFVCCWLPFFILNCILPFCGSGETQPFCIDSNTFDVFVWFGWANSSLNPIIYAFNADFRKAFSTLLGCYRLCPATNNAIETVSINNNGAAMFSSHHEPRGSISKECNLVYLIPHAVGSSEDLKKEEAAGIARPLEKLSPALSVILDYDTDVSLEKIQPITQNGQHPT

One test addresses T1, dopamine D1 receptor (Homo sapiens, UniProt P21728).
T1 construct: host or cells: LMtk (Ltk-) mouse fibroblast cells, kept under Geneticin
Kind of test: cAMP HTRF potentiation assay (in the presence of dopamine). It counts as cell-based. To be noted: potentiation of cAMP with [EC20] of dopamine (1.1 nM); LMtk (Ltk−) mouse fibroblast cells expressing the dopamine D1 receptor. The procedure:
The potentiation assay measures the ability of compounds to increase the levels of cAMP produced by a low-threshold concentration of dopamine. The concentration of dopamine used ([EC20]) is designed to produce 20% stimulation compared to the maximal response (100%) seen with increasing the concentration of dopamine. To measure this potentiation we incubate increasing concentrations of the compound with the [EC20] of dopamine and measure the potentiation as increases in cAMP production. The pEC50 of a compound is the −log 10 of the concentration of the compound which produces 50% of the potentiation of the cAMP levels and the Erel is the relative efficacy, defined as the maximal % potentiation produced by the compound compared to the maximal response produced by increasing concentrations of dopamine (Erel of 1=dopamine maximum response).
Cells were cultured at 37° C. in a humidified atmosphere of 5% CO2. Cells were grown in DMEM-F12+GlutaMAX™-1 medium (GIBCO®, Invitrogen, Merelbeke, Belgium) containing 10% fetal bovine serum (BioWhittaker®, Lonza, Verviers, Belgium), 400 μg/mL Geneticin (GIBCO®), 100 IU/mL Penicillin and 100 IU/mL Streptomycin (Pen-Strep solution, BioWhittaker®).
The measurement of changes in intracellular cyclic adenosinemonophopshpate (cAMP) was determined using the HTRF cAMP dynamic assay kit from CisBio (Codolet, France). Using homogenous time-resolved fluoresence technology, the assay is based on competition between native cAMP produced by cells and cAMP labelled with the dye d2. The tracer binding is determined by an anti-cAMP antibody labeled with cryptate. The effects of the compound alone (agonism) was determined by performing the assay in the absence of dopamine, whilst the effect of the compound as a positive allosteric modulator (PAM) was determined in the presence of an EC20 concentration of dopamine. Cells (20,000 per well) are incubated in 384 plates for 1 h at rt in a final volume of 20 μLHBSS (Lonza, with calcium, magnesium and HEPES buffer 20 mM, pH 7.4) containing: isobutyl methylxanthine (Sigma, 0.1 mM final), varying concentrations of test compound (typically 10^−9.5 M to 10^−4.5 M) in the presence and absence of dopamine (1.1 nM final). The reaction is then terminated and the cells lysed by adding the d2 detection reagent in lysis buffer (10 μL) and the cryptate reagent in lysis buffer (10 μL) according to manufacturer's instructions. This is then incubated for a further 60 min at rt and changes in HTRF fluorescent emission ratio determined according to manufacturer's instructions using an Envision plate reader (Perkin Elmer, Zaventem, Belgium) with laser excitation. All incubations were performed in duplicate and results were compared to a concentration-effect curve to dopamine. (10^−11 M to 10^−6 M).
Data was analyzed using Excel and PRISM (GraphPad Software) to obtain pEC50 and Erel using the 4-parameter logistic equation (DeLean et al, 1978) where Erel is the fitted maximal response of the test compound minus basal expressed as a percentage relative to that obtained with dopamine which was defined as 100%.
With `COc1ccc(C#N)c(CC(=O)N2CC[C@@H]3[C@H](CCC[C@H]3C(C)(O)C(F)(F)F)[C@@H]2C)c1Cl` (single isomer, unassigned) [Example 7-B], the EC50 is 794 nM.

Take `C[C@H]1[C@H]2CCC[C@@H]([C@H](O)C(F)(F)F)[C@@H]2CCN1C(=O)Cc1c(Cl)cnc(C(O)C(F)F)c1Cl` (single isomer, unassigned) [Example 15-B]: the half-maximal effective concentration (EC50) is 25.1 nM.

As to `C[C@H]1[C@H]2CCC[C@@H]([C@@H](O)C(F)(F)F)[C@@H]2CCN1C(=O)Cc1c(Cl)cnc(C(C)(O)C(F)F)c1Cl` (single isomer, unassigned) [Example 16-B], the concentration giving a half-maximal response (EC50) was 79.4 nM.

Turning to `CC(O)c1ncc(Cl)c(CC(=O)N2CC[C@H]3[C@H]([C@H](O)C(F)F)CCC[C@@H]3[C@@H]2C)c1Cl` (single isomer, unassigned) [Example 17-A], the EC50 was 158 nM.

Take `CC(O)c1ncc(Cl)c(CC(=O)N2CC[C@H]3[C@H]([C@H](O)C(F)F)CCC[C@@H]3[C@@H]2C)c1Cl` (single isomer, unassigned) [Example 17-B]: the EC50 is 126 nM.

For `CC(O)c1ncc(Cl)c(CC(=O)N2CC[C@@H]3[C@H](CCC[C@H]3[C@](C)(O)C(F)F)[C@@H]2C)c1Cl` (single isomer, unassigned) [Example 18-A], the EC50 was 200 nM.

Turning to `CC(O)c1ncc(Cl)c(CC(=O)N2CC[C@@H]3[C@H](CCC[C@H]3[C@](C)(O)C(F)F)[C@@H]2C)c1Cl` (single isomer, unassigned) [Example 18-B], the EC50 is 158 nM.

In the case of `CC(O)c1ncc(Cl)c(CC(=O)N2CC[C@H]3[C@H](CCC(C)(C)O)CCC[C@@H]3[C@@H]2C)c1Cl` (single isomer, unassigned) [Example 24-A], the concentration giving a half-maximal response (EC50) was 79.4 nM.

Turning to `CC(O)c1ncc(Cl)c(CC(=O)N2CC[C@H]3[C@H](CCC(C)(C)O)CCC[C@@H]3[C@@H]2C)c1Cl` (single isomer, unassigned) [Example 24-B], the EC50 was 39.8 nM.

Turning to `C[C@H]1[C@H]2CCC[C@@H]([C@H](O)C(F)(F)F)[C@@H]2CCN1C(=O)Cc1c(Cl)ccc(OC(F)F)c1Cl` [Example 19, 1-[(1 S,4aR,5R,8aS)-1-methyl-5-[(1 S)-2,2,2-trifluoro-1-hydroxy-ethyl]-3,4,4a,5,6,7,8,8a-octahydro-1H-isoquinolin-2-yl]-2-[2,6-dichloro-3-(difluoromethoxy)phenyl]ethanone], the half-maximal effective concentration (EC50) was 200 nM.

Turning to `COc1ccc(C#N)c(CC(=O)N2CC[C@H]3C(C#CC(C)(C)O)CCC[C@@H]3[C@@H]2C)c1Cl` (stereo partly drawn) [Example 20, 2-[2-[(1S,4aS,8aS)-5-(3-hydroxy-3-methyl-but-1-ynyl)-1-methyl-3,4,4a,5,6,7,8,8a-octahydro-1H-isoquinolin-2-yl]-2-oxo-ethyl]-3-chloro-4-methoxy-benzonitrile], the EC50 was 158 nM.

As to `COc1ccc(C#N)c(CC(=O)N2CC[C@H]3[C@H](CCC(C)(C)O)CCC[C@@H]3[C@@H]2C)c1Cl` [Example 21, 2-[2-[(1S,4aS,5S,8aS)-5-(3-hydroxy-3-methyl-butyl)-1-methyl-3,4,4a,5,6,7,8,8a-octahydro-1H-isoquinolin-2-yl]-2-oxo-ethyl]-3-chloro-4-methoxy-benzonitrile], the EC50 is 50.1 nM.

Turning to `C[C@H]1[C@H]2CCC[C@@H](CCC(C)(C)O)[C@@H]2CCN1C(=O)Cc1c(Cl)ccc2c1c(Cl)nn2C` [Example 22, 1-[(1S,4aS,5S,8aS)-5-(3-hydroxy-3-methyl-butyl)-1-methyl-3,4,4a,5,6,7,8,8a-octahydro-1H-isoquinolin-2-yl]-2-(3,5-dichloro-1-methyl-indazol-4-yl)ethanone], the EC50 was 200 nM.

Consider `C[C@H]1[C@H]2CCC[C@@H](CCC(C)(C)O)[C@@H]2CCN1C(=O)Cc1c(Cl)cnc(CO)c1Cl` [Example 23, 1-[(1S,4aS,5S,8aS)-5-(3-hydroxy-3-methyl-butyl)-1-methyl-3,4,4a,5,6,7,8,8a-octahydro-1H-isoquinolin-2-yl]-2-[3,5-dichloro-2-(hydroxymethyl)-4-pyridyl]ethanone], for which the EC50 is 50.1 nM.

As to `COc1ccc(C#N)c(CC(=O)N2CC[C@@H]3[C@H](CCC[C@H]3c3cn[nH]n3)[C@@H]2C)c1Cl` [Example 25, 2-[2-[(1S,4aR,5R,8aS)-1-methyl-5-(2H-triazol-4-yl)-3,4,4a,5,6,7,8,8a-octahydro-1H-isoquinolin-2-yl]-2-oxoethyl]-3-chloro-4-methoxybenzonitrile], the concentration for a half-maximal effect (EC50) was 631 nM.

Take `C[C@H]1[C@H]2CCC[C@@H]([C@H](O)C(F)(F)F)[C@@H]2C[C@H](CO)N1C(=O)Cc1c(Cl)ccc2c1c(Cl)nn2C` [Example 26-A, 1-[(1S,3R,4aR,5R,8aS)-3-(hydroxymethyl)-1-methyl-5-[(1S)-2,2,2-trifluoro-1-hydroxy-ethyl]-3,4,4a,5,6,7,8,8a-octahydro-1H-isoquinolin-2-yl]-2-(3,5-dichloro-1-methyl-indazol-4-yl)ethanone]: the EC50 was 3160 nM.

`C[C@H]1[C@@H]2CCC[C@H]([C@H](O)C(F)(F)F)[C@H]2C[C@H](CO)N1C(=O)Cc1c(Cl)ccc2c1c(Cl)nn2C` [Example 26-B, 1-[(1S,3R,4aS,5S,8aR)-3-(hydroxymethyl)-1-methyl-5-[(1S)-2,2,2-trifluoro-1-hydroxy-ethyl]-3,4,4a,5,6,7,8,8a-octahydro-1H-isoquinolin-2-yl]-2-(3,5-dichloro-1-methyl-indazol-4-yl)ethanone]: the EC50 is 50.1 nM.

For the compound `C[C@H]1[C@H]2CCC[C@@H]([C@H](O)C(F)(F)F)[C@@H]2CCN1C(=O)Cc1c(Cl)ccc2c1c(Cl)cn2C` [Example 27, 1-[(1 S,4aR,5R,8aS)-1-methyl-5-[(1 S)-2,2,2-trifluoro-1-hydroxy-ethyl]-3,4,4a,5,6,7,8,8a-octahydro-1H-isoquinolin-2-yl]-2-(3,5-dichloro-1-methyl-indol-4-yl)ethanone], the EC50 is 251 nM.

For a further test, the target named is T2, human GABAA receptor α1β2 and γ2 subunits (Homo sapiens, UniProt P14867+P18507+P47870).
T2 construct: expressed in transfected cells
T2 sequence (P14867 28-456): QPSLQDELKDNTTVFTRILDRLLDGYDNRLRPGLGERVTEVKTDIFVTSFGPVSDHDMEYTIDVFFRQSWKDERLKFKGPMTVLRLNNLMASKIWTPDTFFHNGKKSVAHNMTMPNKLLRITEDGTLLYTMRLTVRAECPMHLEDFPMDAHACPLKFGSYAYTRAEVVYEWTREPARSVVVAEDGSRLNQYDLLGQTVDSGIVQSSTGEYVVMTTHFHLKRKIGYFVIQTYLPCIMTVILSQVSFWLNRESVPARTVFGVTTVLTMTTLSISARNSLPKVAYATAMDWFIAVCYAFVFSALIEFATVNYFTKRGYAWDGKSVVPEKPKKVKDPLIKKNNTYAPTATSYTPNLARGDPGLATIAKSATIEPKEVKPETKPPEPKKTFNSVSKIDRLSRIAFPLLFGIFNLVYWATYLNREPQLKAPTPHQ
T2 sequence (P47870 25-512 limits assumed): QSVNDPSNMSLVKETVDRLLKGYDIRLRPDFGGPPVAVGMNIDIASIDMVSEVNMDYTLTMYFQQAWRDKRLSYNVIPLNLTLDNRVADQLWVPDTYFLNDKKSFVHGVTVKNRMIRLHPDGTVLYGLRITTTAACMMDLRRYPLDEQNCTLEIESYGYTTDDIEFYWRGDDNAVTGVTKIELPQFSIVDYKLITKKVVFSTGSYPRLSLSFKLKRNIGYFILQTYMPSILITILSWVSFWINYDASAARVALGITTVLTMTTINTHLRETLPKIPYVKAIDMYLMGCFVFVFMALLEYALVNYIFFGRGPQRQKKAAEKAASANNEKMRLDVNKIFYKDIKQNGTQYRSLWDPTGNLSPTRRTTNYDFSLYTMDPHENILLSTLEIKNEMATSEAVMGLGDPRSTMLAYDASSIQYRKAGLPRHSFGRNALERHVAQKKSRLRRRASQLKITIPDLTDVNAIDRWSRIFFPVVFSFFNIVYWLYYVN
T2 sequence (P18507 40-475): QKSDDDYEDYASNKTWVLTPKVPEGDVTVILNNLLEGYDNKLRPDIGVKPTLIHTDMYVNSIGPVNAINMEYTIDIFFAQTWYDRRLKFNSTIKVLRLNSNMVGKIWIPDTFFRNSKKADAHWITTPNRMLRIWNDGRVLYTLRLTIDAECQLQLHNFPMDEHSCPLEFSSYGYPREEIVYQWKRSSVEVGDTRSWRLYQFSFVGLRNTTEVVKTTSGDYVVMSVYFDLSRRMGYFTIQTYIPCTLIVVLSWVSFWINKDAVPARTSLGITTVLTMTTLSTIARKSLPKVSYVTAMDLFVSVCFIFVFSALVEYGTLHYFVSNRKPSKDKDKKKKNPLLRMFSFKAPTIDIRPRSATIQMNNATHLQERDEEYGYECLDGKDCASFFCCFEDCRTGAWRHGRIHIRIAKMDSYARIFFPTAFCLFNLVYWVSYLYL
The test can be described thus: Automated patch clamp studies on the GABAA receptor cells. It counts as cell-based. As to conditions: 10 μM compound; 15 μM GABA; CHO-K1 cells; Table B. On the procedure:
CHO-K1 cells stably expressing human GABAA receptor α1β2 and γ2 subunits were used. The cells were harvested using trypsin and maintained in serum-free medium at room temperature. The cells were washed and re-suspended in extracellular solution before testing.
Experiments on human GABAA (α1β2γ2) channels were conducted using an automated patch clamp assay (lonFlux™ HT). The external solution for recording GABAA currents was composed of sodium chloride 137 mM, potassium chloride 4 mM, calcium chloride 1.8 mM, magnesium chloride 1 mM, HEPES 10 mM, and glucose 10 mM. Both external and internal solutions were titrated with NaOH or KOH to obtain a pH of 7.35 and 7.3, respectively. The internal pipette solution contained potassium fluoride 70 mM, potassium chloride 60 mM, sodium chloride 70 mM, HEPES 5 mM, EGTA 5 mM, and Magnesium ATP 4 mM. The final concentration of vehicle used to dilute compounds was 0.33% DMSO in each well. Bicuculline (0.032 to 100 μM) was used as positive control inhibitor. GABA (15 μM) was used as agonist. All recordings were obtained from a holding potential of −60 mV.
The compound addition sequence was the following: one addition of the EC80 concentration of GABA was added to establish baseline response. Each concentration of compound was applied for 30 seconds followed by the addition of 15 μM GABA in the presence of the compound for 2 seconds. The process was repeated with the next ascending concentration of compound. Peak inward currents in response to the GABA additions in the presence of a single concentration of compound were measured. All compound data have been normalized to the baseline peak current induced by addition of 15 μM GABA for 2 seconds.
For the compound `COc1ccc(C#N)c(CC(=O)N2CC[C@@H]3[C@H](CCC[C@H]3C(C)(O)C(F)(F)F)[C@@H]2C)c1Cl` (single isomer, unassigned) [Example 7-B], the “% GABAA inhibition” value amounted to 1.4%.
